For assay [1], the target named is T1, mouse Fpr3 (Fpr-rs1) (Mus musculus, UniProt O08790).
T1 construct: expressed in transfected cells; host or cells: HEK293T (DSMZ # ACC-635), transient transfection with jetPEI
T1 sequence (O08790 1-351): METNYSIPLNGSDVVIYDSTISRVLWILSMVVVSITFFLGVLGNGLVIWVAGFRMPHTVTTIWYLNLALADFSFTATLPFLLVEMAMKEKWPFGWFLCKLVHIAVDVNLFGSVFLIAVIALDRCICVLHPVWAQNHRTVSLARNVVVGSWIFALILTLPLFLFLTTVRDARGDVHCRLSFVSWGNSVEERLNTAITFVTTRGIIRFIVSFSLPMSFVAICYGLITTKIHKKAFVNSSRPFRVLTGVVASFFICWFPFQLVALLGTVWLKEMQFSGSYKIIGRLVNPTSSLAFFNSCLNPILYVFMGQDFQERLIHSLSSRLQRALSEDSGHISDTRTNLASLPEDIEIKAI
Nature of the assay: Heterologous expression / high-throughput Ca2+ imaging agonist screen and sequence selectivity of Fpr3 (Fig. 1a, 2c-e, 2g, 2i). The format is cell-based. Particulars: for Ca2+ response, mean: mean of n = 3 experiments in triplicate (n = 5 for f-MKKFRW), Fpr3 + Gα16 HEK293T, Fluo-4/AM, buffer C1 pH 7.2, mock 0.059-0.060. The gist of the method: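 HEK293T cells were cotransfected with C57BL/6J mouse Fpr3 and Gα16, and Ca2+ responses to synthetic peptides (6–21 residues, >95% purity) were recorded 48 h later by FLIPR with Fluo-4/AM. Peptide stocks of 0.2–1 mM were prepared in buffer C1 (HEPES, pH 7.2).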

Assay [2] addresses T1, mouse Fpr3 (Fpr-rs1). Nature of the assay: Concentration-response Ca2+ imaging of Fpr3-transfected HEK293T cells (Fig. 2f, h, j). The format is cell-based. Particulars: Ca2+ responses of Fpr3-transfected HEK293T; Fluo-4/AM, FLIPR; buffer C1 pH 7.2; Fig. 2f, h, j. As for the experimental part:
An Fpr3 gene subcloned from genomic DNA of C57BL/6J mice into pcDNA3.1 (Invitrogen) was used in heterologous experiments[21],[80]. HEK293T (DSMZ # ACC-635) cells were seeded at 20–30% confluence on poly-D-lysine-coated (10 µg/ml in PBS) black 96-well µCLEAR-Plates (Greiner Bio-One). Cells were transfected 24 h later using jetPEI™ (Polyplus-transfection SA) according to the manufacturer’s protocol for 96-well transfections. For Ca^2+ imaging experiments, 0.125 µg of DNA plasmid encoding Fpr3 were cotransfected with equal amounts of a plasmid encoding Gα16, a promiscuous G protein α-subunit. Ca^2+ signals to agonist stimulation were recorded 48 h post transfection using the Ca^2+ indicator dye Fluo-4/AM (Molecular Probes) and a fluorescence imaging plate reader (FLIPR) system (Molecular Devices).
We used custom-made peptides with a length of 6–21 amino acids to screen for agonists. Sequences of fMet peptides were designed according to motifs present at the N-termini of 15,125 specific bacterial proteins as annotated in UniProt. Peptides were chemically synthesised, purified, and verified by mass spectroscopy (MALDI-TOF) by commercial suppliers. […] Source, sequence and purity of each peptide are listed in Supplementary Data 1. Lyophilised peptides were routinely dissolved in the Ca^2+ imaging assay buffer C1 (130 mM NaCl, 10 mM HEPES, 5 mM KCl, 2 mM CaCl2, 5 mM glucose, pH 7.2) as 0.2–1 mM stock solutions and kept in small aliquots at −20 °C until use.

Peptide text beside a SMILES is read from it. * marks the point of attachment. For = O=C*

In general, EC50 refers to the concentration needed to bring the measured effect to its halfway point. Low readings indicate greater potency, high ones weaker potency. As to `CSCC[C@H](NC=O)C(=O)N[C@@H](CCCCN)C(=O)N[C@@H](CCCCN)C(=O)N[C@@H](Cc1ccccc1)C(=O)N[C@@H](CCCNC(=N)N)C(=O)N[C@@H](Cc1c[nH]c2ccccc12)C(=O)O` [f-MKKFRW] (For-MKKFRW-OH), in assay [1] (3 µM, Fpr3-transfected HEK293T, Gα16, Fluo-4/AM, FLIPR, Fig. 1a), the “activation of Fpr3 in agonist screen, in words” value is “activated Fpr3-expressing HEK293T”. Further, the “Ca2+ response, mean” value in assay [1] (3 µM, FLIPR) was 0.110 ∆F/F; in assay [1] (30 µM, FLIPR) it was 0.423 ∆F/F. Further, the “Fpr3 activation by sequence variants, in words” value in assay [1] (30 µM (3 or 30 µM for elongated peptides), Fpr3-transfected HEK293T, Fig. 2c-e, i) is recorded as “Fpr3 recognises the core agonist f-MKKFRW”. Further, the “specific Ca2+ response of Fpr3 in agonist screen, in words” value in assay [1] (3 or 30 µM, Fpr3-transfected HEK293T, panel of 41 peptides, Fig. 1a) is on record as “caused Fpr3 activation”. The same compound showed a 50% effective concentration (EC50) in assay [2] of 7.7 µM.

“f-MGFFIS [bacterial signal peptide fragment]”: the “Ca2+ response, mean” value was 0.055 ∆F/F in assay [1] (3 µM, FLIPR) and 0.048 ∆F/F in assay [1] (30 µM, FLIPR).
